Tests used:
PASK = biological target: T1, PASK (UniProt #Q96RG2; human recombinant N-terminal GST tagged construct, residues 879-1323) (Homo sapiens, UniProt Q96RG2); test: PASK ATP Radiochemical Assay; assay type: biochemical; settings: 33P-ATP, Myelin Basic Protein substrate, 120 min at room temperature, read-out: IC50 Kinase Domain
T1 construct: human recombinant N-terminal GST tagged construct, residues 879-1323; GST (N); host or cells: insect cells
Protocol: (§1) Biochemical Assay for hPASK Activity
PASK ATP Radiochemical Assay
Test compounds in DMSO are then added and the mixture, followed by delivery of ^33P-ATP (specific activity 0.01 μCi/μl final) to initiate the reaction. […] The entire reaction mixture is washed through onto a P81 Phosphocellulose paper and washed three times for 10 minutes in 75 mM phosphoric acid and once in methanol prior to drying and scintillation counting.

PASK (Invitrogen) = biological target: T2, PASK (Invitrogen) (Homo sapiens, UniProt Q96RG2); test: PAS Kinase FRET Assay; assay type: biochemical; settings: PAS kinase TR-FRET assay (665 nm/615 nm), 2 hours at 25° C.; read-out: IC50 Kinase Domain
T2 construct: IC50 Kinase Domain; purchased Invitrogen
T2 sequence (Q96RG2 999-1251 limits assumed): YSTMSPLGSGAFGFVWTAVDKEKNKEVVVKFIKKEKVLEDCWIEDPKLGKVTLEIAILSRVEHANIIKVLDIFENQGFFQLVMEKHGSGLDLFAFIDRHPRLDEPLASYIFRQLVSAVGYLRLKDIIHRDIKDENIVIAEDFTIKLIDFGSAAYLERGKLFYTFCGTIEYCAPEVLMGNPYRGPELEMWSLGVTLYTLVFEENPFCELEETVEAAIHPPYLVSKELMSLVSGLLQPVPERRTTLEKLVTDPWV
Description: as §1
The aim of the FRET assay is to determine the inhibition potential of test compounds on targeted kinase. This assay platform provides a homogenous screening method for measuring kinase activity by quantitating the amount of phospho-substrate in solution following a kinase reaction.
In the presence of kinase and ATP, the Ulight-peptide is phosphorylated and captured by an anti-phospho-substrate antibody, which brings the Eu chelate donor and Ulight acceptor dyes into close proximity.
Titration of kinase at 1 mM ATP was achieved via the following protocol. […] The contents of the plate were incubated at RT for 1 h. The reaction was stopped by adding 5 μl of stop solution to each test well followed by mixing and incubation at RT for 10 minutes. 5 μl of detection mix (detection antibody diluted in detection buffer) was added; the contents of the plate were mixed and then incubated in the dark for 1 hour at RT. […] The results were graphed to calculate the EC50.
Titration of ATP at the EC50 concentration of kinase to determine ATP Km,app. was performed using the following method. […] The contents of the plate were and incubated at RT for 1 h. The reaction was stopped by adding 5 μl of stop solution to each test well followed by mixing and incubation at RT for 10 minutes. […] (detection antibody diluted in detection buffer) was added; the contents of the plate were mixed and then incubated in the dark for 1 hour at RT. […] The results were graphed to calculate the EC50 as the ATP Km,app.
Compound screening was done via the following method. 10 mM stock solution of test compound in DMSO was prepared by dissolving test compound in DMSO at RT for 1 hour, and then sonicating at 100% output for 8 minutes. If compound is not soluble under this condition, it was diluted to 3 mM. Kinase reaction buffer was prepared containing 10 mM MgCl2, 50 mM HEPES, 1 mM EGTA, 0.01% TWEEN-20, 2 mM DTT. […] As a positive control, 2.5 μl of positive compound was added to assay wells, and 2.5 μl of DMSO to assay wells as vehicle control. Kinase solution was prepared in reaction buffer at 2× final assay concentration. Kinase solution (5 μl) was added to each well of the assay plate. The substrate and ATP solution was prepared in kinase reaction buffer at 4× final assay concentration. The kinase reaction was started by adding 2.5 μl of substrate+ATP mix solution to each well of the assay plate. The plate is mixed on a plate shaker; then covered and allowed to react for 2 hours in the dark at 25° C. without shaking. The reaction was stopped by adding 5 μl of stop solution to each test well followed by mixing and incubation at RT for 10 minutes in the dark. 5 μl of detection mix (detection antibody diluted in detection buffer) was added; the contents of the plate were mixed and then incubated in the dark for 1 hour at RT.

T1 sequence (Q96RG2 879-1323, stated change not applied): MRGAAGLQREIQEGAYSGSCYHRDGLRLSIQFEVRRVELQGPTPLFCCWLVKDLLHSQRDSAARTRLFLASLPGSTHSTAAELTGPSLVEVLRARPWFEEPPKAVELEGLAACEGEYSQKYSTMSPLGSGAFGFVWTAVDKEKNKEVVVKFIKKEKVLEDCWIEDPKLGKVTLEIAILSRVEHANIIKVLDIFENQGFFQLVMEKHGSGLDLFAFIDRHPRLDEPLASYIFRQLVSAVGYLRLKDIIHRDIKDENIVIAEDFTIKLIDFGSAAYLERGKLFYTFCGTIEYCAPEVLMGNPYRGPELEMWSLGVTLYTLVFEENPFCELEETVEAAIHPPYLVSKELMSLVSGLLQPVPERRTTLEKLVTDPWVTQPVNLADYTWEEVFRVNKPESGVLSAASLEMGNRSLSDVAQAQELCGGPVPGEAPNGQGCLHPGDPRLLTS

Compound	IC50 (PASK) [µM]	IC50 (PASK (Invitrogen)) [µM]
COc1cc2nc(-c3ccc(F)cc3)c(N(C)C(C)C)nc2cc1C(=O)O [Example 122, 2-(4-Fluorophenyl)-7-methoxy-3-[methyl(propan-2-yl)amino]quinoxaline-6-carboxylic acid]		> 10
CN[C@H]1CC[C@H](N(C)c2nc3cc(C(=O)O)ccc3nc2-c2ccc(F)cc2)CC1 [Example 126, 2-(4-Fluorophenyl)-3-(methyl((1r,4r)-4-(methylamino)cyclohexyl)amino)quinoxaline-6-carboxylic acid]		< 10
CC(=O)N[C@H]1CC[C@H](N(C)c2nc3cc(C(=O)O)ccc3nc2-c2ccc(F)cc2)CC1 [Example 127, 3-(((1r,4r)-4-Acetamidocyclohexyl)(methyl)amino)-2-(4-fluorophenyl)quinoxaline-6-carboxylic acid]		< 10
CC(=O)N1CCN(c2nc3cc(C(=O)O)ccc3nc2-c2ccc(F)cc2)CC1 [Example 128, 3-(4-Acetylpiperazin-1-yl)-2-(4-fluorophenyl)quinoxaline-6-carboxylic acid]		< 10
O=C(O)c1ccc2nc(-c3ccc(F)cc3)c(N3CCN(C(=O)c4ccccc4)CC3)nc2c1 [Example 129, 3-(4-Benzoylpiperazin-1-yl)-2-(4-fluorophenyl)quinoxaline-6-carboxylic acid]		< 10
CS(=O)(=O)N1CCN(c2nc3cc(C(=O)O)ccc3nc2-c2ccc(F)cc2)CC1 [Example 130, 2-(4-Fluorophenyl)-3-(4-(methylsulfonyl)piperazin-1-yl)quinoxaline-6-carboxylic acid]		< 10
O=C(O)c1ccc2nc(-c3ccc(F)cc3)c(N3CCC(c4ccccn4)CC3)nc2c1 [Example 131, 2-(4-Fluorophenyl)-3-[4-(pyridin-2-yl)piperidin-1-yl]quinoxaline-6-carboxylic acid]		< 10
C[C@H]1CCCN1c1nc2cc(C(=O)O)c(O)cc2nc1-c1ccc(F)cc1 [Example 132, (S)-2-(4-Fluorophenyl)-7-hydroxy-3-(2-methylpyrrolidin-1-yl)quinoxaline-6-carboxylic acid]		< 10
CN(Cc1ccccc1)c1nc2cc(C(=O)O)ccc2nc1-c1ccc(F)cc1 [Example 133, 3-[Benzyl(methyl)amino]-2-(4-fluorophenyl)quinoxaline-6-carboxylic acid]		< 10
CN(Cc1ccccn1)c1nc2cc(C(=O)O)ccc2nc1-c1ccc(F)cc1 [Example 134, 2-(4-Fluorophenyl)-3-[methyl(pyridin-2-ylmethyl)amino]quinoxaline-6-carboxylic acid]		< 10
CC(C)N(C)c1nc2cc(C(=O)O)ccc2nc1-c1ccc(C(F)(F)F)cc1 [Example 136, 3-(Isopropyl(methyl)amino)-2-(4-(trifluoromethyl)phenyl)quinoxaline-6-carboxylic acid]		< 10
CCN1CCC(N(C)c2nc3cc(C(=O)O)ccc3nc2-c2ccc(F)cc2)CC1 [Example 137, 3-[(1-Ethylpiperidin-4-yl)(methyl)amino]-2-(4-fluorophenyl)quinoxaline-6-carboxylic acid]		< 10
CCN1CCN(c2nc3cc(C(=O)O)ccc3nc2-c2ccc(F)cc2)[C@@H](C)C1 [Example 138, (S)-3-(4-Ethyl-2-methylpiperazin-1-yl)-2-(4-fluorophenyl)quinoxaline-6-carboxylic acid]		< 10
CCCN(CC)c1nc2cc(C(=O)O)ccc2nc1-c1ccc(F)cc1 [Example 139, 3-[Ethyl(propyl)amino]-2-(4-fluorophenyl)quinoxaline-6-carboxylic acid]		< 10
CC(C)CN(C)c1nc2cc(C(=O)O)ccc2nc1-c1ccc(F)cc1 [Example 141, 2-(4-Fluorophenyl)-3-(isobutyl(methyl)amino)quinoxaline-6-carboxylic acid]		< 10
CCC1CCCCN1c1nc2cc(C(=O)O)ccc2nc1-c1ccc(F)cc1 (centres unmarked) [Example 142, 3-(2-Ethylpiperidin-1-yl)-2-(4-fluorophenyl)quinoxaline-6-carboxylic acid]		< 10
C[C@@H](c1ccccc1)N(C)c1nc2cc(C(=O)O)ccc2nc1-c1ccc(F)cc1 [Example 143, (S)-2-(4-Fluorophenyl)-3-(methyl(1-phenylethyl)amino)quinoxaline-6-carboxylic acid]		< 10
O=C(O)c1ccc2nc(-c3ccc(F)cc3)c(N3CCCC3)nc2c1 [Example 144, 2-(4-Fluorophenyl)-3-(pyrrolidin-1-yl)quinoxaline-6-carboxylic acid]		< 10
O=C(O)c1ccc2nc(-c3ccc(F)cc3)c(N3CCC3)nc2c1 [Example 145, 3-(Azetidin-1-yl)-2-(4-fluorophenyl)quinoxaline-6-carboxylic acid]		< 10

The remaining lines, values ahead:

IC50 (PASK) [µM]	IC50 (PASK (Invitrogen)) [µM]	Compound
< 10	< 10	CC(C)N(C)c1nc2cc(C(=O)O)ccc2nc1-c1cc2cc(Cl)ccc2o1 [Example 19, 2-(5-Chlorobenzofuran-2-yl)-3-(isopropyl(methyl)amino)quinoxaline-6-carboxylic acid]
< 10	< 10	CC(C)N(C)c1nc2cc(C(=O)O)ccc2nc1-c1ccc2c(c1)CCCO2 [Example 21, 2-(Chroman-6-yl)-3-(isopropyl(methyl)amino)quinoxaline-6-carboxylic acid]
< 10	< 10	CC(C)N(C)c1nc2cc(C(=O)O)ccc2nc1-c1cc2ccccc2s1 [Example 23, 2-(Benzo[b]thiophen-2-yl)-3-(isopropyl(methyl)amino)quinoxaline-6-carboxylic acid]
< 10	< 10	Cc1n[nH]c2ccc(-c3nc4ccc(C(=O)O)cc4nc3N(C)C(C)C)cc12 [Example 44, 2-(3-Methyl-M-indazol-5-yl)-3-(isopropyl(methyl)amino)quinoxaline-6-carboxylic acid]
< 10	< 10	CC(C)N(C)c1nc2cc(C(=O)O)ccc2nc1-c1cc2ccc(F)cc2o1 [Example 45, 2-(6-Fluoro-1-benzofuran-2-yl)-3-[methyl(propan-2-yl)amino]quinoxaline-6-carboxylic acid]
< 10	< 10	O=C(O)c1ccc2nc(-c3cc4ccc(F)cc4o3)c(N3CCCCCC3)nc2c1 [Example 48, 3-(Azepan-1-yl)-2-(6-fluoro-1-benzofuran-2-yl)quinoxaline-6-carboxylic acid]
< 10	< 10	O=C(O)c1ccc2nc(-c3ccc4c(c3)OC(F)(F)O4)c(N3CCCCCC3)nc2c1 [Example 51, 3-(Azepan-1-yl)-2-(2,2-difluoro-2H-1,3-benzodioxol-5-yl)quinoxaline-6-carboxylic acid]
	< 10	Cc1cc(F)ccc1-c1nc2ccc(C(=O)O)cc2nc1N(C)C(C)C [Example 118, 2-(4-Fluoro-2-methylphenyl)-3-(isopropyl(methyl)amino)quinoxaline-6-carboxylic acid]
	< 10	CC(C)N(C)c1nc2cc(C(=O)O)ccc2nc1-c1ccc(C(N)=O)cc1 [Example 119, 2-(4-Carbamoylphenyl)-3-(isopropyl(methyl)amino)quinoxaline-6-carboxylic acid]
	< 10	CC(C)N(C)c1nc2cc(C(=O)O)c(F)cc2nc1-c1ccc(F)cc1 [Example 123, 7-Fluoro-2-(4-fluorophenyl)-3-[methyl(propan-2-yl)amino]quinoxaline-6-carboxylic acid]
	< 10	CN(CC(F)(F)F)c1nc2cc(C(=O)O)ccc2nc1-c1ccc(F)cc1 [Example 124, 2-(4-Fluorophenyl)-3-[methyl(2,2,2-trifluoroethyl)amino]quinoxaline-6-carboxylic acid]
	< 10	CN(c1nc2cc(C(=O)O)ccc2nc1-c1ccc(F)cc1)[C@H]1CC[C@H](O)CC1 [Example 125, 2-(4-Fluorophenyl)-3-(((1r,4r)-4-hydroxycyclohexyl)(methyl)amino)quinoxaline-6-carboxylic acid]
